One may read the IC50 as the midpoint of a concentration-inhibition curve. A higher IC50 goes with lower potency.

Structures are written as SMILES.

This is an account of results in EP4667458A1 (Kanaph Therapeutics Inc., priority 2023, dated 2024).

The test concerns the target T1, KRAS^G12C::SOS1 (Homo sapiens, UniProt Q07889).
T1 sequence (Q07889 1-1333): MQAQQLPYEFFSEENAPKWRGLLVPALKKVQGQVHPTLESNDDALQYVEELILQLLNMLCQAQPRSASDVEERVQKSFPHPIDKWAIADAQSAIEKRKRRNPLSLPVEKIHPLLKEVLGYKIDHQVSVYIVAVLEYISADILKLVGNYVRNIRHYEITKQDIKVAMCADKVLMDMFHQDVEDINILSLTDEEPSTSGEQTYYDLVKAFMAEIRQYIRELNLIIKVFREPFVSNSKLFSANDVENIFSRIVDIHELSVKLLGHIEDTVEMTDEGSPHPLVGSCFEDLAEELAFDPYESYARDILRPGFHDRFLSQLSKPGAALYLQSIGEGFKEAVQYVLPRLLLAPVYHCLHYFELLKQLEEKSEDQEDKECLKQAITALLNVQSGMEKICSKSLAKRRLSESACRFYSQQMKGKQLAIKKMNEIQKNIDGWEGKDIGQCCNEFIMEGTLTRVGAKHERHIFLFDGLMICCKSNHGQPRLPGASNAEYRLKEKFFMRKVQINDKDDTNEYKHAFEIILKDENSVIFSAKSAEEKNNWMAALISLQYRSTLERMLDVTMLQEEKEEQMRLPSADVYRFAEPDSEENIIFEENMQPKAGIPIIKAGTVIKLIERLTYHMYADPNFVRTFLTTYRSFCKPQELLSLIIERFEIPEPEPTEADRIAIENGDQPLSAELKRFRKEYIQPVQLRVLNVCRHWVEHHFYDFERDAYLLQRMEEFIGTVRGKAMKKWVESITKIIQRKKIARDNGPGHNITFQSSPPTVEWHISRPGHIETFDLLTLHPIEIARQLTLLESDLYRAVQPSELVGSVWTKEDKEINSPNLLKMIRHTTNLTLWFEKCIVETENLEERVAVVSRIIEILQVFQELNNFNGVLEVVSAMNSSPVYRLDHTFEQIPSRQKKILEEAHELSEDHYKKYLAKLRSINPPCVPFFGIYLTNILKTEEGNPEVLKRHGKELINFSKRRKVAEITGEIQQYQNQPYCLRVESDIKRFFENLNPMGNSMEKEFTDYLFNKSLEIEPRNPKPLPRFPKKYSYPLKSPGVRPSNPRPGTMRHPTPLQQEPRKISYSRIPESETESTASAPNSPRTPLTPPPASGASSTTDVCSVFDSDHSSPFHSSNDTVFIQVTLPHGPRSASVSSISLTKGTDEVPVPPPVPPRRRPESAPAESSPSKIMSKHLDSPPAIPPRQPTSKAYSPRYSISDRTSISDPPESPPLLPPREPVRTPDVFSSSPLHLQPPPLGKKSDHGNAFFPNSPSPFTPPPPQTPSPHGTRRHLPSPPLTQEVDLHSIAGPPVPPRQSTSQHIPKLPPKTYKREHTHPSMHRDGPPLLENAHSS
Put plainly: KRAS G12C::SOS1 protein-protein interaction (PPI) inhibition assay (HTRF binding kit). (In general: In TR-FRET formats the signal depends on donor and acceptor labels being close together.)
As to `Cc1ncnn1-c1cccc(-n2nc(C(=O)N[C@H](C)c3cc(N)cc(C(F)(F)F)c3)ccc2=O)c1` [Example 211, N-[(1R)-1-[3-amino-5-(trifluoromethyl)phenyl]ethyl]-1-[3-(5-methyl-1,2,4-triazol-1-yl)phenyl]-6-oxo-pyridazine-3-carboxamide], the IC50 was less than 1000 nM.

Regarding `C[C@@H](NC(=O)c1cc(N)c(=O)n(-c2ccccc2)n1)c1cc(N)cc(C(F)(F)F)c1` [Example 213, 5-amino-N-[(1R)-1-[3-amino-5-(trifluoromethyl)phenyl]ethyl]-6-oxo-1-phenyl-pyridazine-3-carboxamide], the concentration for half-maximal inhibition (IC50) is less than 1000 nM.

For `Cc1cc(C(=O)N[C@H](C)c2cc(N)cc(C(F)(F)F)c2)nn(-c2ccccc2)c1=O` [Example 214, N-[(1R)-1-[3-amino-5-(trifluoromethyl)phenyl]ethyl]-5-methyl-6-oxo-1-phenyl-pyridazine-3-carboxamide], the IC50 is less than 1000 nM.

Take `COc1ccc(-n2nc(C(=O)N[C@H](C)c3cccc(C(F)(F)CO)c3F)ccc2=O)c(F)c1` [Example 215, N-[(1R)-1-[3-(1,1-difluoro-2-hydroxy-ethyl)-2-fluoro-phenyl]ethyl]-1-(2-fluoro-4-methoxy-phenyl)-6-oxo-pyridazine-3-carboxamide]: the IC50 is less than 1000 nM.

Take `C[C@@H](NC(=O)c1ccc(=O)n(-c2ccccc2F)n1)c1cc(N)cc(C#N)c1F` [Example 216, N-[(1R)-1-(5-amino-3-cyano-2-fluoro-phenyl)ethyl]-1-(2-fluorophenyl)-6-oxo-pyridazine-3-carboxamide]: the IC50 is 1000 to 10000 nM.

In turn, `C[C@@H](NC(=O)c1ccc(=O)n(-c2ccccc2F)n1)c1cccc(C(F)(F)CO)c1F` [Example 217, N-[(1R)-1-[3-(1,1-difluoro-2-hydroxy-ethyl)-2-fluoro-phenyl]ethyl]-1-(2-fluorophenyl)-6-oxo-pyridazine-3-carboxamide] returned an IC50 of less than 1000 nM.

Turning to `C[C@@H](NC(=O)c1ccc(=O)n(-c2ccccc2F)c1)c1cc(N)cc(C(F)(F)F)c1` [Example 218, N-[(1R)-1-[3-amino-5-(trifluoromethyl)phenyl]ethyl]-1-(2-fluorophenyl)-6-oxo-pyridine-3-carboxamide], the half-inhibitory concentration (IC50) was less than 1000 nM.

`C[C@@H](NC(=O)c1ccc(=O)n(-c2ccccc2)n1)c1cc(O)cc(F)c1` [Example 219, N-[(1R)-1-(3-fluoro-5-hydroxy-phenyl)ethyl]-6-oxo-1-phenyl-pyridazine-3-carboxamide] yielded an IC50 of less than 1000 nM.

`C[C@@H](NC(=O)c1nn(-c2ccccc2)c(=O)cc1Cl)c1cc(N)cc(C(F)(F)F)c1` [Example 220, N-[(1R)-1-[3-amino-5-(trifluoromethyl)phenyl]ethyl]-4-chloro-6-oxo-1-phenyl-pyridazine-3-carboxamide] returned an IC50 of less than 1000 nM.

`C[C@@H](NC(=O)c1ccc(=O)[nH]n1)c1cc(N)cc(C(F)(F)F)c1` [Example 221, N-[(1R)-1-[3-amino-5-(trifluoromethyl)phenyl]ethyl]-6-oxo-1H-pyridazine-3-carboxamide] returned an IC50 of less than 1000 nM.

Compound `COCCn1nc(C(=O)N[C@H](C)c2cc(N)cc(C(F)(F)F)c2)ccc1=O` [Example 222, N-[(1R)-1-[3-amino-5-(trifluoromethyl)phenyl]ethyl]-1-(2-methoxyethyl)-6-oxo-pyridazine-3-carboxamide] registered a half-maximal inhibitory concentration (IC50) of less than 1000 nM.

Compound `C[C@@H](NC(=O)c1ccc(=O)n(CCO)n1)c1cc(N)cc(C(F)(F)F)c1` [Example 223, N-[(1R)-1-[3-amino-5-(trifluoromethyl)phenyl]ethyl]-1-(2-hydroxyethyl)-6-oxo-pyridazine-3-carboxamide] returned an IC50 of less than 1000 nM.

`C[C@@H](NC(=O)c1ccc(=O)n(CC2CC2)n1)c1cc(N)cc(C(F)(F)F)c1` [Example 224, N-[(1R)-1-[3-amino-5-(trifluoromethyl)phenyl]ethyl]-1-(cyclopropylmethyl)-6-oxo-pyridazine-3-carboxamide] came in with an IC50 of less than 1000 nM.

As to `C[C@@H](NC(=O)c1ccc(=O)n(Cc2ccccn2)n1)c1cc(N)cc(C(F)(F)F)c1` [Example 225, N-[(1R)-1-[3-amino-5-(trifluoromethyl)phenyl]ethyl]-6-oxo-1-(2-pyridylmethyl)pyridazine-3-carboxamide], the IC50 is less than 1000 nM.

`C[C@@H](NC(=O)c1ccc(=O)n(CCF)n1)c1cc(N)cc(C(F)(F)F)c1` [Example 226, N-[(1R)-1-[3-amino-5-(trifluoromethyl)phenyl]ethyl]-1-(2-fluoroethyl)-6-oxo-pyridazine-3-carboxamide] came in with an IC50 of less than 1000 nM.

Turning to `C[C@@H](NC(=O)c1ccc(=O)n(Cc2ccccc2)n1)c1cc(N)cc(C(F)(F)F)c1` [Example 227, N-[(1R)-1-[3-amino-5-(trifluoromethyl)phenyl]ethyl]-1-benzyl-6-oxo-pyridazine-3-carboxamide], the IC50 was less than 1000 nM.

For `C[C@@H](NC(=O)c1ccc(=O)n(C)n1)c1cc(N)cc(C(F)(F)F)c1` [Example 228, N-[(1R)-1-[3-amino-5-(trifluoromethyl)phenyl]ethyl]-1-methyl-6-oxo-pyridazine-3-carboxamide], the IC50 is less than 1000 nM.

Regarding `C[C@@H](NC(=O)c1ccc(=O)n(CCN(C)C)n1)c1cc(N)cc(C(F)(F)F)c1` [Example 229, N-[(1R)-1-[3-amino-5-(trifluoromethyl)phenyl]ethyl]-1-[2-(dimethylamino)ethyl]-6-oxo-pyridazine-3-carboxamide], the IC50 fell in the range of 1000 to 10000 nM.

Turning to `C[C@@H](NC(=O)c1ccc(=O)n(-c2cccc(C(=O)N3CCCC3)c2F)n1)c1cc(N)cc(C(F)(F)F)c1` [Example 230], the IC50 is less than 1000 nM.

`CNC(=O)c1cccc(-n2nc(C(=O)N[C@H](C)c3cc(N)cc(C(F)(F)F)c3)ccc2=O)c1F` [Example 231, (R)-N-(1-(3-amino-5-(trifluoromethyl)phenyl)ethyl)-1-(2-fluoro-3-(methylcarbamoyl)phenyl)-6-oxo-1,6-dihydropyridazine-3-carboxamide] came in with an IC50 of less than 1000 nM.

With `COCCNC(=O)c1cccc(-n2nc(C(=O)N[C@H](C)c3cc(N)cc(C(F)(F)F)c3)ccc2=O)c1F` [Example 232, (R)-N-(1-(3-amino-5-(trifluoromethyl)phenyl)ethyl)-1-(2-fluoro-3-((2-methoxyethyl)carbamoyl)phenyl)-6-oxo-1,6-dihydropyridazine-3-carboxamide], the IC50 is less than 1000 nM.

`C[C@@H](NC(=O)c1ccc(=O)n(-c2cccc(C(=O)N3CCOCC3)c2F)n1)c1cc(N)cc(C(F)(F)F)c1` [Example 233, (R)-N-(1-(3-amino-5-(trifluoromethyl)phenyl)ethyl)-1-(2-fluoro-3-(morpholine-4-carbonyl)phenyl)-6-oxo-1,6-dihydropyridazine-3-carboxamide] showed an IC50 of less than 1000 nM.

`CCNC(=O)c1cccc(-n2nc(C(=O)N[C@H](C)c3cc(N)cc(C(F)(F)F)c3)ccc2=O)c1F` [Example 234, (R)-N-(1-(3-amino-5-(trifluoromethyl)phenyl)ethyl)-1-(3-(ethylcarbamoyl)-2-fluorophenyl)-6-oxo-1,6-dihydropyridazine-3-carboxamide] displayed an IC50 of less than 1000 nM.

As for `C[C@@H](NC(=O)c1ccc(=O)n(-c2cccc(-c3nnco3)c2)n1)c1cc(N)cc(C(F)(F)F)c1` [Example 235, N-[(1R)-1-[3-amino-5-(trifluoromethyl)phenyl]ethyl]-1-[3-(1,3,4-oxadiazol-2-yl)phenyl]-6-oxo-1,6-dihydropyridazine-3-carboxamide], the IC50 is less than 1000 nM.
